Experimental data published in patent US9827312B2, “Method for carrying therapeutic substances into cells” (MAGFORCE AG, priority 2005, dated 2017).

Assays:
[1] = system: tumor cells (in vitro); assay: Destruction of tumor cells in vitro by cefamandole alone; format: cell-based; conditions: cefamandole without nanoparticles
From the text: Cefamandole (CAS No 30034-03-8) is used to combat bacterial infections. […] This substance's potential to combat cancer cells, however, is to be considered to be rather low. […] It is, however, possible to drastically increase the efficacy of cefamandole in the treatment of tumor cells by the simultaneous application of nanoparticles.

[2] = system: BT20 (breast carcinoma) cells; assay: Efficacy of cefamandole/nanoparticle mixture in vitro, BT20 (Example 2); format: cell-based, human; conditions: 72 hrs incubation, cefamandole 0.016 mg/ml in medium, 136 μl MFL AS M01
Method: (§1) The experiments in vitro were carried out with the cell lines BT20 (breast carcinoma) and WiDr (colon carcinoma). The tumor cells were taken from tumor tissue of a patient and cultivated as described in DE 199 12 798 C1. 2×10^6 cells, respectively, were prepared in a 75 cm^3 cell culture bottle with 25 ml of cell culture medium (RPMI+10% FBS+1.2 ml of pyruvate for WiDr cells, or respectively BME+10% FBS+pyruvate+5 ml of non-essential amino acids+5 ml glutamine for BT20 cells) for testing the efficacy of the cefamandole/nanoparticle mixture. 136 μl of magnetic fluid MFL AS M01 (iron oxide nanoparticle coated with polycondensed N-(2-aminoethyl)-3-(trimethoxysilyl)propylamine, manufacturer: MagForce Nanotechnologies GmbH, Berlin, Germany) (cFe=2 mol/l) and 390 μl of cefamandole solution (stock solution 1 mg/ml in 0.9% NaCl) were added to said cell suspension.
(§2) After 72 hrs, 30.5% of the BT20 cells and 24% of the WiDr cells had died. Neither cefamandole in the selected concentration, nor the nanoparticle alone, are capable of causing cell death (0% of dead cells). Only the combination of cefamandole and nanoparticles leads to said significant damage of the tumor cells which is due to the transfer of cefamandole into the cells.

[3] = system: WiDr (colon carcinoma) cells; assay: Efficacy of cefamandole/nanoparticle mixture in vitro, WiDr (Example 2); format: cell-based, human; conditions: 72 hrs incubation, cefamandole 0.016 mg/ml in medium, 136 μl MFL AS M01
Method: as §1, §2

[4] = system: glioblastoma human cell line RUSIRS1; assay: Increase in the activity of cytostatics with nanoparticles (Table 1), RUSIRS1; format: cell-based; conditions: procedure of example 2
Method: as §1
(§3) Corresponding to the experiment procedure according to example 2, the following […] were tested in vitro with the active ingredients listed in table 1: a) glioblastoma human cell line RUSIRS 1; b) breast carcinoma cell lines BT20; c) colon carcinoma cell line WiDR; d) bronchial carcinoma cells NSCLC, e) rectal carcinoma cells and f) prostate carcinoma cell line DU 145.
(§4) In all cases, an increased activity of the cytostatic could be observed. The increase in activity is indicated in parentheses after the respective cytostatic, wherein (+) means an increase of about 5% to 80% and (++) means an increase of 80% to 500%.

[5] = system: breast carcinoma cell lines BT20; assay: Increase in the activity of cytostatics with nanoparticles (Table 1), BT20; format: cell-based, human; conditions: procedure of example 2
Method: as §1, §3, §4

[6] = system: colon carcinoma cell line WiDr; assay: Increase in the activity of cytostatics with nanoparticles (Table 1), WiDr; format: cell-based, human; conditions: procedure of example 2
Method: as §1, §3, §4

[7] = system: bronchial carcinoma cells NSCLC; assay: Increase in the activity of cytostatics with nanoparticles (Table 1), NSCLC; format: cell-based; conditions: procedure of example 2
Method: as §1, §3, §4

[8] = system: rectal carcinoma cells; assay: Increase in the activity of cytostatics with nanoparticles (Table 1), rectal carcinoma; format: cell-based; conditions: procedure of example 2
Method: as §1, §3, §4

[9] = system: prostate carcinoma cell line DU 145; assay: Increase in the activity of cytostatics with nanoparticles (Table 1), DU 145; format: cell-based; conditions: procedure of example 2
Method: as §1, §3, §4

[10] = system: neuroglioma cell line H4; assay: Increase in the activity of cytostatics with nanoparticles (Table 1), H4; format: cell-based; conditions: procedure of example 2
Method: as §1, §3, §4

Row | Structure (SMILES) | concentration in the cell culture medium needed for destruction of tumor cells [1] [mg/mL] | dead cells [2] [%] | dead cells [3] [%] | increase in the activity of cytostatics [4] | increase in the activity of cytostatics [5] | increase in the activity of cytostatics [6] | increase in the activity of cytostatics [7] | increase in the activity of cytostatics [8] | increase in the activity of cytostatics [9] | increase in the activity of cytostatics [10]
1 | Cn1nnnc1SCC1=C(C(=O)O)N2C(=O)[C@@H](NC(=O)[C@H](O)c3ccccc3)[C@H]2SC1 [cefamandole, Cefamandole] | ≥ 0.5 | 0 | 0 | – | – | – | – | – | – | –
2 | CC[C@]1(O)C[C@H]2CN(CCc3c([nH]c4ccccc34)[C@@](C(=O)OC)(c3cc4c(cc3OC)N(C=O)[C@H]3[C@@](O)(C(=O)OC)[C@H](OC(C)=O)[C@]5(CC)C=CCN6CC[C@]43[C@@H]65)C2)C1 [vincristine] | – | – | – | (+) ((+) means an increase of about 5% to 80%) | (++) ((++) means an increase of 80% to 500%) | (+) ((+) means an increase of about 5% to 80%) | (++) ((++) means an increase of 80% to 500%) | (++) ((++) means an increase of 80% to 500%) | (+) ((+) means an increase of about 5% to 80%) | (+) ((+) means an increase of about 5% to 80%)
